Data: publication PMC4949440 (Scientific Reports, 2016)
Where two headings read alike, the source gives them in different places.

Legend:
SGC7901 cells = assay: cells; format: cell-based; settings: read-out: IC50 SGC7901
MCF-7 cells = assay: cells; format: cell-based; settings: read-out: IC50 MCF-7
GES-1 cells = assay: cells; format: cell-based; settings: read-out: IC50 GES-1
HL-60 cells [1] = assay: cells; format: cell-based, human
HL-60 cells [2] = assay: Total glutathione and GSH/GSSG level; format: cell-based, human; settings: 2 μM 2a or 1.5 μM 2b; for ratio of GSH/GSSG: with or without 0.075 mM LA
Method: The cells were cultured in a 6-well plate and treated with 2 μM 2a or 1.5 μM 2b. After 24 h, the cells were collected and washed twice with PBS. The protein content was quantified by the use of Bradford procedure. Then each sample was treated according to the manufacturer’s instructions (beyotime, Shanghai, China). The absorbance was measured every 5 minutes at 405 nm with microplate reader.
(§1) In protective trial, the cells were pre-incubated with the protective agents for 4 h and other operations were in accordance with the above.

HL-60 cells [3] = assay: Intracellular ROS level (DCFH-DA); format: cell-based, human; settings: 2 μM 2a or 1.5 μM 2b, 24 h
Method: HL-60 cells treated with 2 μM 2a or 1.5 μM 2b were plated in 12-well plates. After 24 h, each sample of cells was collected and washed once with PBS. The cells were incubated with 300 μL FBS-free medium containing DCFH-DA (1 μM) for 30 min in dark at 37 °C. Data were obtained and analyzed using a C6 flow cytometer (BD Biosciences, USA)[27].
In laser scanning confocal experiment, the medium was removed after 24 h incubation. 1 mL FBS-free medium with DCFH-DA (10 μM) was added to each sample. Then continue the incubation for 30 min in dark at 37 °C. The samples were visualized and photographed using a C1-si Laser Scanning Confocal Microscope (Nikon, Japan).
as §1

HL-60 cells [4] = format: cell-based, human; settings: for apoptosis rate (FITC+/PI− and FITC+/PI+): control 2.9%
HEK293 cells = assay: cells; format: cell-based
HL-60 cells [5] = assay: Mitochondrial membrane potential (JC-1 or Rh123, flow cytometry); format: cell-based, human
Method: HL-60 cells treated with 2a (1.5 μM and 3 μM) or 2b (1 μM and 2 μM) were plated in 12-well plates. After 24 h, cells were collected and washed once with PBS. Then, the cells were handled with JC-1 according to the manufacturer’s instructions (Multi Sciences BiotechCo., Ltd, Hangzhou, China) or Rh123. Data were obtained and analyzed using a C6 flow cytometer (BD Biosciences, USA).
as §1

HL-60 cells [6] = assay: Hoechst 33342 staining, morphology; format: cell-based, human; settings: 2a (1 μM and 2 μM) or 2b (0.75 μM and 1.5 μM), 24 h
Method: HL-60 cells treated with 2a (1 μM and 2 μM) or 2b (0.75 μM and 1.5 μM) were plated in 12-well plates, and the medium was removed after 24 h, followed by the addition of 5 μg.mL^−1 Hoechst 33342. After being incubated for 30 min in dark at 37 °C, the samples were visualized and photographed using a C1-si Laser Scanning Confocal Microscope (Nikon, Japan)[27].

normal leukocyte = assay: Effect on normal leukocyte (MTT viability and Annexin V-FITC/PI apoptosis); format: cell-based, human; settings: 3.5 μM 2a, 2.5 μM 2b or 15 μM As2O3 for 6 h, 12 h or 24 h
Method: Normal human fresh peripheral blood with EDTA anticoagulant was dealt with Red Blood Cell Lysis Buffer according to manufacturer’s instructions (Beyotime, Shanghai, China) to obtain the normal leukocyte. […] Then, the apoptosis rate using Annexin V-FITC/PI staining and cell viability using MTT method were tested respectively. There are 8 independent normal human fresh peripheral blood samples in all to be tested. This study was carried out in accordance with relevant guidelines and regulations of Wuhan University and the experiment protocol was approved by Zhongnan Hospital of Wuhan University. Additionally, the informed consent was obtained from all subjects.

HL-60 cells [7] = assay: Released cytochrome c level (ELISA); format: cell-based, human; settings: 3 μM 2a or 2 μM 2b, 24 h
Method: HL-60 cells with 3 μM 2a or 2 μM 2b were incubated in a 12-well plate for 24 h. The cells were sacrificed and dealt with ELISA Kit (Meilian BiotechCo., Ltd, Shanghai, China) according to the manufacturer’s instructions. The absorbance was measured at 450 nm with microplate reader.
as §1

Caspase-3 in HL-60 cells = assay: Caspase-3 activity (colorimetric, cell extracts); format: cell-based, human
Method: HL-60 cells were treated with 3 μM 2a or 2 μM 2b for 12 h in a 6-well plate. Each sample was collected and washed twice with PBS. Then the cells were incubated with moderate lysis buffer from the kit on ice. The cell extract was handled on the basis of manufacturer’s instructions (beyotime, Shanghai, China). After 3 h, the absorbance at 405 nm was measured using a microplate reader.
as §1

NIH3T3 cells = assay: cells; format: cell-based
[8] = Homo sapiens, HL-60, 24 h, read-out: IC50 HL-60
[9] = 3 μM 2a or 2 μM 2b alone, 24 h (Fig. 2a, Fig. 6c)
[10] = 3 μM 2a or 2 μM 2b alone, 24 h, LA experiment (Fig. 6d)
[11] = 3 μM 2a or 2 μM 2b with 0.075 mM LA pre-incubating, 24 h
[12] = 3 μM 2a or 2 μM 2b with 2 mM NAC, 24 h
[13] = 3 μM 2a or 2 μM 2b, 24 h (Fig. 2a)
[14] = Homo sapiens, HEK293, read-out: IC50 HEK293
[15] = 3 μM 2a or 2 μM 2b after pre-adding 0.075 mM LA
[16] = 3 μM 2a or 2 μM 2b, 24 h (Fig. 5b), control 30.8%
[17] = 3 μM 2a or 2 μM 2b alone, 24 h, 12 h (method)
[18] = 3 μM 2a or 2 μM 2b with 0.075 mM LA
[19] = Mus musculus, NIH3T3, read-out: IC50 NIH3T3

Compound	IC50 (SGC7901 cells; Homo sapiens, SGC-7901, 24 h) [µM]	IC50 (MCF-7 cells; Homo sapiens, MCF7, 24 h) [µM]	IC50 (GES-1 cells; Homo sapiens, GES1, 24 h) [µM]	IC50 (HL-60 cells [1]; [8]) [µM]	content of intracellular total GSH (HL-60 cells [2]; 24 h)	content of intracellular total GSH (HL-60 cells [2]; pretreatment with 0.075 mM LA)	ratio of GSH/GSSG (HL-60 cells [2])	relative fluorescence intensity of DCF (ROS) versus control (HL-60 cells [3])	ROS level with antioxidant (HL-60 cells [3]; 0.075 mM LA pre-incubated 4 h)	ROS level with antioxidant (HL-60 cells [3]; 1 mM DTT pre-incubated 4 h)	ROS level with antioxidant (HL-60 cells [3]; 1 mM VC pre-incubated 4 h)	ROS level with antioxidant (HL-60 cells [3]; 2 mM NAC pre-incubated 4 h)	ROS level with antioxidant (HL-60 cells [3]; pretreated with GSH)	apoptosis rate (FITC+/PI− and FITC+/PI+) (HL-60 cells [4]; 1.5 μM 2a or 1 μM 2b, 24 h) [%]	Q1-LL live (normal) cells (HL-60 cells [4]; [9]) [%]	apoptosis rate (HL-60 cells [4]; [10]) [%]	apoptosis rate (HL-60 cells [4]; [11]) [%]	Q1-LL live (normal) cells (HL-60 cells [4]; [12]) [%]	apoptosis rate (FITC+/PI− and FITC+/PI+) (HL-60 cells [4]; [13]) [%]	concentration that could kill the majority of HL-60 cells (HL-60 cells [1])	other results
Oc1ccccc1C=Nc1ccccc1 [Compound 1a, 2-((phenylimino)methyl) phenol, reference compound]	> 100	> 100	> 100	> 100																	
O=[As]c1ccc(N=Cc2ccccc2O)cc1 (centres unmarked) [Compound 2a, 2-(((4-(oxoarsanyl)phenyl)imino)methyl)phenol]	4.03 ± 0.89	2.53 ± 0.41	5.96 ± 1.23	0.77 ± 0.1	decreased significantly	could recover the content	showed the similar variation trend	doubled approximately	scavenging ROS completely	scavenge additional ROS completely	decrease the level of ROS to that of control	scavenge additional ROS completely	began to decrease by a concentration-dependent way	9.3	44.3	55.7	11.4	86.6	55.5	less than 1 μM	IC50 (HEK293 cells; [14]): 4.36 ± 0.62 µM; intensity of Rh123 (mitochondrial membrane potential) (HL-60 cells [5]; 3 μM 2a or 2 μM 2b): drop obviously; intensity of Rh123 (mitochondrial membrane potential) (HL-60 cells [5]; [15]): recovered to some extent; proportion of mitochondrial membrane potential collapse (P2, JC-1) (HL-60 cells [5]; [16]): 68.3%; morphology changes (Hoechst 33342 fluorescence) (HL-60 cells [6]): cell nuclear shrinkage and DNA incision; influence on normal leukocyte (cell viability, apoptosis) versus control (normal leukocyte): no more influence on normal leukocyte than control; relative content of cytochrome c versus control (HL-60 cells [7]): approximately six times; activity of Caspase-3 (Caspase-3 in HL-60 cells; [17]): enhanced; activity of Caspase-3 (Caspase-3 in HL-60 cells; [18]): could be deterred by 0.075 mM LA; IC50 (NIH3T3 cells; [19]): 7.43 ± 0.37 µM
COc1cc(C=Nc2ccc([As]=O)cc2)ccc1O (centres unmarked) [Compound 2b, 2-methoxy-4-(((4-(oxoarsanyl)phenyl)imino)methyl)phenol]	2.12 ± 0.48	2.81 ± 1.34	1.57 ± 0.26	0.51 ± 0.1	decreased significantly	could recover the content	showed the similar variation trend	doubled approximately	scavenging ROS completely	eliminate the majority of ROS	eliminate the majority of ROS	removed completely	began to decrease by a concentration-dependent way	10.7	34.4	86.1	11.7	92.1	65.3	less than 1 μM	IC50 (HEK293 cells; [14]): 2.29 ± 0.34 µM; intensity of Rh123 (mitochondrial membrane potential) (HL-60 cells [5]; 3 μM 2a or 2 μM 2b): drop obviously; intensity of Rh123 (mitochondrial membrane potential) (HL-60 cells [5]; [15]): recovered to some extent; proportion of mitochondrial membrane potential collapse (P2, JC-1) (HL-60 cells [5]; 3 μM 2a or 2 μM 2b with 0.075 mM LA pre-incubation (Fig. 5b)): ~12%; proportion of mitochondrial membrane potential collapse (P2, JC-1) (HL-60 cells [5]; [16]): 78.5%; morphology changes (Hoechst 33342 fluorescence) (HL-60 cells [6]): cell nuclear shrinkage and DNA incision; influence on normal leukocyte (cell viability, apoptosis) versus control (normal leukocyte): no more influence on normal leukocyte than control; relative content of cytochrome c versus control (HL-60 cells [7]): five times; activity of Caspase-3 (Caspase-3 in HL-60 cells; [17]): enhanced; activity of Caspase-3 (Caspase-3 in HL-60 cells; [18]): could be deterred by 0.075 mM LA; IC50 (NIH3T3 cells; [19]): 2.72 ± 0.64 µM
O=[As]c1ccc(N=Cc2c3ccccc3cc3ccccc23)cc1 (centres unmarked) [Compound 4a, 1-(anthracen-9-yl)-N-(4-(oxoarsanyl)phenyl) methanimine]	7.63 ± 3.02	11.3 ± 3.4	8.72 ± 3.76	15.9 ± 0.56																	melting point: 91 to 92 °C; IC50 (HL-60 cells [1]; Homo sapiens, HL-60, read-out: half inhibitory concentration (IC50) for HL-60 cells): > 10 µM
O=[As]O [NaAsO2, reference compound]																					IC50 (SGC7901 cells): 59 ± 11.8 µM; IC50 (MCF-7 cells): 31.7 ± 0.67 µM; IC50 (GES-1 cells): 42.6 ± 11.6 µM; IC50 (HL-60 cells [1]; read-out: IC50 HL-60): 10.6 ± 3.06 µM; IC50 (HEK293 cells; read-out: IC50 HEK293): 14.6 ± 0.61 µM; IC50 (NIH3T3 cells; read-out: IC50 NIH3T3): 10.8 ± 1.66 µM
